Laboratory results: patent publication US12234257B2, “Triterpene saponin derivative and use thereof” (KOREA INSTITUTE OF SCIENCE AND TECHNOLOGY, priority 2020, dated 2025)
“Also recorded” adds a separate entry of the source.

How the values were obtained:
Type in all cases: cell-based, human
[1] = tested on: GFP-RFP-LC3-II puncta in SH-SY5Y cells; experiment: Tandem fluorescent protein quenching assay (RFP-GFP-LC3); details: transfected SH-SY5Y cells, AKNS-2 10 μM + Baf 100 nM
Experimental: SH-SY5Y cells were cultured in a 24-well plate at a density of 8×10^4 cells/well on a glass cover slip. Transfection was performed in accordance with guidelines of the autophagy tandem RFP-GFP-LC3B kit. After culturing the cells for 24 hours, the cells were treated with an LC3B reagent. After the transfected cells were incubated for 24 hours, 50 nM Wart or 100 nM Baf was administered thereto, and then AKNS-2 (10 μM) was added thereto. The cells were immobilized with 4% paraformaldehyde and permeabilized with 0.1% Triton X100. Nuclei thereof were stained with 4,6-diamidino-2-phenylindole (DAPI, 25 μg/mL). Fluorescent signals were detected using a confocal microscope (Leica, Solms, Germany).

[2] = tested on: autophagy-related protein markers (LC3-II, p62, p-AMPK, p-Erk, p-ULK, p-mTOR) in SH-SY5Y cells; experiment: Western blot of autophagy-related protein markers in SH-SY5Y cells
Experimental: (§1) Human neuroblastoma (SH-SY5Y) cells were purchased from the American Type Culture Collection (Manassas, Va., USA) and cultured in DMEM supplemented with 10% heat-inactivated FBS and 1% penicillin/streptomycin. The SH-SY5Y cells were cultured at 37° C. in a humid atmosphere containing 5% CO2. […] The SH-SY5Y cells were transfected with AMPK siRNA and then administered with AKNS-2 at 36 hours after siRNA transfection. […] After 24 hours from treatment with the samples, the SH-SY5Y cells were recovered and used for subsequent analysis. At 24 hours after drug treatment, the culture medium was removed from the 6-well plate, and the cells were gently washed once with cold saline. Subsequently, 1 mL of cold saline was added to each well, and cells attached to the bottom were floated by rubbing the bottom with a 1 mL pipette. The suspension was collected in a 1.5 mL tube and centrifuged at 4° C. at 13000×g for 5 minutes. After removing a supernatant, 50 μL of a RIPA lysis buffer including a protease inhibitor cocktail (Roche, Mannheim, Germany) and purchased from Cell Signaling Technology (Danvers, Mass., USA) was added to the cell pellet. After shaking the mixture at 4° C. for 30 minutes, the obtained cells were centrifuged at 4° C. at 13000×g for 20 minutes. A supernatant was collected therefrom, and a concentration of proteins was measured using a standard curve constructed using BSA by the Bradford method. Then, the supernatant was diluted with a loading buffer and heated at 99° C. for 5 minutes. Resultant cells were used in a subsequent western blot analysis. Protein markers contained in lysates of the SH-SY5Y cells and brain tissue of the mice (SNpc and ST) were measured by western blot analysis. Briefly, after determining a concentration, a protein sample (20 μg) was separated by 8%, 10%, or 15% sodium dodecyl sulfate-polyacrylamide gel electrophoresis (SDS-PAGE). Then, proteins separated on the gel were transferred to a polyvinylidene fluoride (PVDF) membrane for 45 minutes using a Trans-Blot Turbo Transfer System (Bio-Rad, USA). […] The membrane was further incubated with monoclonal primary antibodies derived from rabbits (anti-GAPDH, anti-AMPK, anti-p-AMPK, anti-ULK, anti-p-ULK555, anti-Erk, anti-p-Erk, anti-mTOR, anti-p-mTOR, anti-LC3B, anti-TH, and anti-α-synuclein antibodies). The primary antibodies were diluted in a blocking buffer at a ratio of 1:1000 and incubated overnight at 4° C. On the second day, the membrane was washed with TBST three times (10 minutes each) and incubated at room temperature in a horseradish peroxidase-conjugated goat anti-rabbit IgG secondary antibody (diluted in a blocking buffer at a ratio of 1:2000). After incubating in the secondary antibody for 1 hour, the membrane was washed for 30 minutes. The protein blots on the membrane were developed using an ECL detection kit and visualized using an LAS-4000 mini system (Fujifilm, Japan). The intensity of the protein blots was quantified using Multi Gauge software (Fujifilm, Japan).

[3] = tested on: LC3, p62, TH and α-synuclein in SH-SY5Y cells; experiment: Western blot of LC3, p62, TH and α-synuclein in MPP^+-treated SH-SY5Y cells (in vitro PD model)
Experimental: as §1

[4] = tested on: SH-SY5Y cells; experiment: MTT assay to measure cell viability
Experimental: Cell viability was detected using an MTT assay kit (Z-Cytox). Briefly, the SH-SY5Y cells were seeded on a 96-well plate at a density of 2×10^4 cells/well with 100 μL of a culture medium. After 24 hours, the SH-SY5Y cells were treated with AKNS-2 and/or MPP^+ having desired concentrations to identify cytotoxicity of AKNS-2 and MPP^+. After 24 hours, 10 μL of the MTT reagent was added to each well of the 96-well plate including the cells. Absorbance was measured at 450 nm using a microplate spectrophotometer (BioTek, Vt., USA). […] The next day, absorbance was measured at 1 hour after adding the MTT reagent thereto.

[5] = 3-MA 5 mM 30 minutes before AKNS-2 10 μM
[6] = 10 μM U0126 30 minutes before AKNS-2 (5 μM and 10 μM)

With `CO/C1=C\C(C)=C\[C@@H](C)[C@@H](O)[C@@H](C)C/C(C)=C/C=C/[C@H](OC)[C@@H]([C@@H](C)[C@@H](O)[C@H](C)[C@@]2(O)C[C@@H](O)[C@H](C)[C@@H](C(C)C)O2)OC1=O` [Baf, bafilomycin A1] the “AKNS-2-enhanced accumulation of LC3-II puncta with bafilomycin A1” value [1] was “increased green fluorescence and decreased red fluorescence” and the “AKNS-2-enhanced accumulation of LC3-II puncta with bafilomycin A1” value ([1]; listed as bafilomycin A1) was “AKNS-2-induced autophagy is inhibited”.

For `Cn1cnc(N)c2ncnc1-2` [Compound 3-MA, 3-methyladenine, reference compound], the “AKNS-2-decreased p62 expression in presence of 3-MA” value [2, 5] was “increases p62 expression; also recorded: remarkably blocked the inhibitory effects of AKNS-2 on the expression level of p62”, the “AKNS-2-up-regulated LC3-II expression in presence of 3-MA” value [2, 5] was “decreases LC3-II expression; also recorded: the increased expression was significantly decreased” and the “AKNS-2 effect on TH expression in presence of 3-MA” value ([3]; 3-MA + AKNS-2 + MPP^+) was “advantageous effects of AKNS-2 were canceled out”. For the same molecule, the “expression of LC3-II with 3-MA” value ([3]; 3-MA vs group co-administered with AKNS-2 and MPP^+) was “significantly inhibited the expression of LC3-II”.

With `N#CC(=C(/N)Sc1ccccc1N)/C(C#N)=C(\N)Sc1ccccc1N` [Compound U0126, reference compound] the “AKNS-2-induced LC3-II expression in presence of U0126” value [2, 6] was “a significant decrease was observed in the expression of LC3-II; also recorded: blocked the effects of AKNS-2 (5 μM and 10 μM) on increasing the expression of LC3-II”, the “AKNS-2-inhibited p-mTOR expression in presence of U0126” value [2, 6] was “considerably restored” and the “AKNS-2-increased p-ULK expression in presence of U0126” value ([2]; 10 μM U0126 + AKNS-2 10 μM) was “canceled out the effects of AKNS-2 (10 μM) on an increase in expression of p-ULK”. The “protective effect of AKNS-2 on cell viability in presence of U0126” value ([4]; 10 μM U0126 + AKNS-2 (5 μM and 10 μM) + 2 mM MPP^+) was “cancels out protective effects of AKNS-2 on cell viability; also recorded: such enhancement was canceled out”, the “AKNS-2 effect on α-synuclein in presence of U0126” value ([3]; 10 μM U0126 + AKNS-2 + 2 mM MPP^+) was “the protective effects were blocked” and the “AKNS-2 effect on TH expression in presence of U0126” value ([3]; 10 μM U0126 before AKNS-2 and 2 mM MPP^+) was “the effects of AKNS-2 on increasing the expression of TH were inhibited”.

`C[n+]1ccc(-c2ccccc2)cc1.[I-]` [MPP^+, 1-methyl-4-phenylpyridinium (MPP^+) iodide, reference compound] was tested, and the “cell viability (MTT)” value ([4]; MPP^+ alone, 2 mM) was “significantly decreased cell viability”.
